According to patent US20090088439A1, “Diazinane Compounds” (priority 2007, published 2009):

Experiments:
[1] = target: T1, GABABR1a/GABABR2 heterodimer (Homo sapiens, UniProt O75899+Q9UBS5); test: GTPγS35 radioligand filtration-binding assay for determination of agonist potency; type: biochemical; conditions: membranes of CHO K1 Flp-In cells expressing GABABR1a/GABABR2; compound alone
T1 construct: expressed in transfected cells; membrane preparation
Experimental: The potency and efficacy of the compounds acting as agonists at the GABAB receptor was also determined in a automated GTPγS^35 radioligand filtration-binding assay.
(§1) The GABAB receptor is a G-protein coupled receptor. Binding of a ligand activates the receptor leading to recruitment of G-protein and a substitution of the G-protein bound GDP to GTP. The G-protein becomes active. The G-protein is inactivated by hydrolysis of GTP to GDP. G-proteins are membrane bound and therefore present in membrane preparations.
(§2) In the GTPγS^35 assay, GTP is not present but instead GTPγS^35 where one of the phosphate groups are substituted to a sulphur group which cannot be hydrolysed. Upon activation of the receptor, radiolabelled GTPγS^35 replaces the GDP. The complex cannot be inactivated and the radiolabelled complex is accumulating. At the end of the assay, the reaction mixture is filtered through a membrane-binding filter. Excess GTPγS^35 is removed by washing and the membrane bound S^35, which correlates to the degree of receptor activation, is measured with a β-Liquid Scintillation Counter.
The human GABABR1a was subcloned into pIRESneo3 (Clontech) using GABABR1a construct as a template (refseqN NM001470). GABABR2 was subcloned into pCDNA5/FRT (Invitrogen) using GABABR2 construct as a template (refseqN NM005458). The Kozak sequence GCCACC was introduced before the start codon in both constructs.
For generation of stable cell lines, CHO K1 Flp-In cells (Invitrogen) were grown in DMEM/F 12 1:1 media supplemented with 10% FBS at 37° C. in a humidified CO2-incubator. The cells were detached with Accutase and 1.5 million cells were seeded into T75 flasks. After 24 h, transfection of the cells were performed with the GABABR2 construct. For generation of cell lines expressing GABABR2, GABABR2 plasmid (1 μg) and pOG44 from Invitrogen (9 μg) were mixed with 30 μl Lipofectamine 2000 in 600 μl OptiMEM for 20 minutes. The cells were exposed to transfection medium for 5 hours and was then replaced with culture medium. After 2 days 0.5 mg/ml Hygromycin were added to culture medium. The cells were cultured for an additional 10 days to establish a stable cell mix expressing GABABR2. For generation of a cell line expressing the GABABR1a/GABABR2 heterodimer, GABABR1a plasmid DNA (8 μg) and Lipofectamine (30 μl) were mixed in 600 μl OptiMEM and incubated for 20 minutes before added to CHO-Flp-In cells expressing GABABR2. After 2 days additional selection agent was added (0.8 mg/ml Geneticin). The cells were cultured for another 10 days to generate a stable mixed population expressing the GABABR1a/GABABR2 heterodimer. The cell line was analyzed by GTPγS^35 assay with GABA as agonist.
GTPγS^35 radioligand filtration-binding assays were performed using an automated workstation at 30° C. for 1 hour in assay buffer (50 mM HEPES, 40 mM NaCl, 1 mM MgCl2×6H2O, 30 μg/mL Saponin, pH 7.4 at RT) containing 0.025 μg/μL of membrane protein (prepared from the cell line described above), 10 μM GDP and 0.55 nCi/μL GTPγS^35 in a final volume of 60 μL. The reaction was started by the addition of compounds (GABA was always included as a positive control), start concentration 100 μM dilution factor 3. The reaction was terminated and membranes collected by addition of ice-cold wash buffer (50 mM Tris-HCl, 5 mM MgCl2×6H2O, 50 mM NaCl, pH 7.4 at 4° C.) followed by rapid filtration under vacuum through a MultiScreen HTS 384 FB filter plate. Repeated washing of the filters with ice-cold wash buffer washed the unbound radioligand away. The filter plates were dried for 1½-2 hours at 50° C., then 8 μL scintillation liquid was added per well followed by incubation at RT for at least 20 minutes before bound radioactivity was determined using a β-Liquid Scintillation Counter (1450 Microbeta Trilux, Wallac, Finland)
100% activation (max) is calculated as the mean value for wells containing 1 mM GABA. […]

[2] = target: T2, GABAB(1A,2) receptor heterodimer (Homo sapiens, UniProt O75899+Q9UBS5); test: GTPγS35 radioligand filtration-binding assay for determination of PAM potency; type: biochemical; conditions: membranes of CHO-K1 cells expressing GABABR1a/GABABR2; concentration required to reduce GABA's EC50 by 50%; PAM at 10, 1, 0.1 and 0.01 μM; read-out: Mean (EC50 derived) PAM EC50
T2 construct: expressed in transfected cells; membrane preparation
T2 sequence (Q9UBS5 15-961 limits assumed): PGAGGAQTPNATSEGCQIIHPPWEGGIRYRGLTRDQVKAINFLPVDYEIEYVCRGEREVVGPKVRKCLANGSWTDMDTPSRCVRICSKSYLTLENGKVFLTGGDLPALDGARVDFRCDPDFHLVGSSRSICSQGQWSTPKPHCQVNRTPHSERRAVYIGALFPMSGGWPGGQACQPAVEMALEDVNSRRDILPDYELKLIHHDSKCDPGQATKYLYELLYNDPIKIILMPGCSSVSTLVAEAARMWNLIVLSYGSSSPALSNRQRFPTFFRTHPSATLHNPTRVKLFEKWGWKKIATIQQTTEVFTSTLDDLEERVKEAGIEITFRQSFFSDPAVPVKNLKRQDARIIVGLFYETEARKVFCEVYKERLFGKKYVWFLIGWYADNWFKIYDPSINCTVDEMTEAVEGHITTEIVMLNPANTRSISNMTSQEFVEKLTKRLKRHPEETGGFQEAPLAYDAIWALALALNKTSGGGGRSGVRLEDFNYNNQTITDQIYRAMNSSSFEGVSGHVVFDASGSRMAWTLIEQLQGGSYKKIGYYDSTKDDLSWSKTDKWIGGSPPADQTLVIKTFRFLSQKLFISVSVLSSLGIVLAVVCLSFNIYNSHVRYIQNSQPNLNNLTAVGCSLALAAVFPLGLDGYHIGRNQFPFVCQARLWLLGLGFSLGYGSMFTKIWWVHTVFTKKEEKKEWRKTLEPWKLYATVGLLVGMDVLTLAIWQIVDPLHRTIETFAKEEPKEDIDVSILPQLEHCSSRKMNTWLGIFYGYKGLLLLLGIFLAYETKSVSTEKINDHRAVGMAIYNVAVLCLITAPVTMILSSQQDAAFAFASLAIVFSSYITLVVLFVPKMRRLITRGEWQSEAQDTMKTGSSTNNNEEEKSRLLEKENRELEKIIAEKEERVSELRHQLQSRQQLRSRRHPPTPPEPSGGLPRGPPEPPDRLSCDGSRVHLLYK
T2 sequence (O75899 42-941): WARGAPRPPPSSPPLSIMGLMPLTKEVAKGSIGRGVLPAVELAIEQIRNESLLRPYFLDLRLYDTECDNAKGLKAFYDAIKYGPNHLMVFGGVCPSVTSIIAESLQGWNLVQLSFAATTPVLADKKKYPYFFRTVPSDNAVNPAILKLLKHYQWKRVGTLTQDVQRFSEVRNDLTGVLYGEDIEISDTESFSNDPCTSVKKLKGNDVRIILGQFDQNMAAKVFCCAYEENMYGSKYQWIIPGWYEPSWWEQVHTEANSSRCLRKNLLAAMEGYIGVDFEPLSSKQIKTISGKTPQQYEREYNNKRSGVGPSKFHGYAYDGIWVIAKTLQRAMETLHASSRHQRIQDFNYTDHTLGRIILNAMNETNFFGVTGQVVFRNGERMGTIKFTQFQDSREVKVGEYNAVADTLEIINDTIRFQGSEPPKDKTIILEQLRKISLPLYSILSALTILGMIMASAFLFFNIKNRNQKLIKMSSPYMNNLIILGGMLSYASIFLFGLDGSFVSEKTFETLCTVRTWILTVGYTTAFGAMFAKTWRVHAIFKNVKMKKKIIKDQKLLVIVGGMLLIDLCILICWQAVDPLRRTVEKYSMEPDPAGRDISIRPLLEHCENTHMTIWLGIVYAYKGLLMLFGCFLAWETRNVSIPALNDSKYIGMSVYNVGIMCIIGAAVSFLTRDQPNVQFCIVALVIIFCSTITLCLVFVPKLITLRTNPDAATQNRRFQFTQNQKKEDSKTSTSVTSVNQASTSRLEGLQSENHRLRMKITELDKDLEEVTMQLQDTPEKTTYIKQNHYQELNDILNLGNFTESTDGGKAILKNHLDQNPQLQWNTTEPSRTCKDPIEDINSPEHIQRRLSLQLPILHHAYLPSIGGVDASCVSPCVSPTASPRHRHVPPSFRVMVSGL
Text: The effect of GABA in an automated GTPγS^35 radioligand filtration-binding assay in CHO cells expressing the GABAB(1A,2) receptor heterodimer was studied in the presence or absence of the positive allosteric modulator test compounds. […]
as §1, §2
GABABR1a and GABABR2 were cloned from human brain cDNA and subcloned into pCI-Neo (Promega) and pALTER-1 (Promega), respectively.
In order to optimise the Kozak consensus sequence of GABABR2, in situ mutagenesis was performed using the Altered Sites Mutagenesis kit according to manufacturer's instruction (Promega) with the following primer,
5′-[…]-3′. The optimised GABABR2 was then restricted from pALTER-1 with Xho I+Kpn I and subcloned into the mammalian expression vector pcDNA3.1(−)/Zeo (Invitrogen) to produce the final construct, pcDNA3.1(−)/Zeo-GABABR2.
For generation of stable cell lines, CHO-K1 cells were grown in Nut mix F-12 (Ham) media supplemented with 10% FBS, 100 U/ml Penicillin and 100 μg/ml Streptomycin at 37° C. in a humidified CO2-incubator. The cells were detached with 1 mM EDTA in PBS and 1 million cells were seeded in 100 mm petri dishes. After 24 hours the culture media was replaced with OptiMEM and incubated for 1 hour in a CO2-incubator.
For generation of a cell line expressing the GABABR1a/GABABR2 heterodimer, GABABR1a plasmid DNA (4 μg) GABABR2 plasmid DNA (4 μg) and lipofectamine (24 μl) were mixed in 5 ml OptiMEM and incubated for 45 minutes at room temperature. The cells were exposed to the transfection medium for 5 hours, which then was replaced with culture medium. The cells were cultured for an additional 10 days before selection agents (300 μg/ml hygromycin and 400 μg/ml geneticin) were added. Twenty-four days after transfection, single cell sorting into 96-well plates by flow cytometry was performed using a FACS Vantage SE (Becton Dickinson, Palo Alto, Calif.). After expansion, the GABAB receptor functional response was tested by measuring the GABAB receptor dependent release of intracellular calcium in a fluorescence imaging plate reader (FLIPR). The clone with the highest functional response was collected, expanded and then subcloned by single cell sorting. The clonal cell line with the highest peak response in the FLIPR was used in the present study.
GTPγS^35 radioligand filtration-binding assays were performed using an automated workstation at 30° C. for 1 hour in assay buffer (50 mM HEPES, 40 mM NaCl, 1 mM MgCl2×6H2O, 30 μg/mL Saponin, pH 7.4 at RT) containing 0.025 μg/μL of membrane protein (prepared from the cell line described above), 10 μM GDP and 0.55 nCi/μL GTPγS^35 in a final volume of 60 μL. The reaction was started by the addition of serially diluted GABA (final start concentration 1 mM dilution factor 3) in the presence or absence of four concentrations (final conc 10, 1, 0.1 and 0.01 μM) of PAM. The reaction was terminated and membranes collected by addition of ice-cold wash buffer (50 mM Tris-HCl, 5 mM MgCl2×6H2O, 50 mM NaCl, pH 7.4 at 4° C.) followed by rapid filtration under vacuum through a MultiScreen HTS 384 FB filter plate. […]

T1 sequence (Q9UBS5 15-961 limits assumed): as the sequence (Q9UBS5 15-961 limits assumed) above
T1 sequence (O75899 42-941): as the sequence (O75899 42-941) above

Row | SMILES | EC50 [1] [µM] | EC50 [2] [µM]
1 | CC(C)(C)CCn1c(=O)n(Cc2ccc(Cl)cc2)c(=O)c2nccnc21 [Example 6, 3-(4-chlorobenzyl)-1-(3,3-dimethylbutyl)pteridine-2,4(1H,3H)-dione] | 4.7 | 0.8
2 | CCCn1c(=O)n(Cc2ccc(Cl)cc2)c(=O)c2nc3c(nc21)CCCC3 [Example 20, 3-(4-chlorobenzyl)-1-propyl-6,7,8,9-tetrahydrobenzo[g]pteridine-2,4(1H,3H)-dione] | 0.8 | 0.8
3 | CCCn1c(=O)n(Cc2ccc(Cl)cc2)c(=O)c2nc(C)c(C)nc21 [Example 15, 3-(4-chlorobenzyl)-6,7-dimethyl-1-propylpteridine-2,4(1H,3H)-dione] | 36.8 | 1.3
